Source: ChEMBL document CHEMBL1201862, “PubChem BioAssay data set” (2004)
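Five compound concentrations were applied to cells in 96-well plates for 48 hours; endpoints were derived by simple linear interpolation of the resulting dose-response curve. Abbreviation: GI50, concentration required for 50% inhibition of growth.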 Active and inactive are the calls of the source. Cut-off read from the data, not from the text of the source: active = GI50 up to about 1.1 µM and inactive = higher.

How the values were obtained:
Test in all cases: NCI tumour cell line growth inhibition, 48 h
[1] = system: PC-3
[2] = system: UACC-257
[3] = system: CAKI-1
[4] = system: OVCAR-4
[5] = system: A549
[6] = system: EKVX
[7] = system: OVCAR-3
[8] = system: MDA-MB-231
[9] = system: HCT-15
[10] = system: SK-OV-3
[11] = system: OVCAR-8
[12] = system: MDA-N
[13] = system: COLO 205
[14] = system: SN12C
[15] = system: SW-620
[16] = system: SF-268
[17] = system: Malme-3M
[18] = system: SK-MEL-28
[19] = system: HOP-92
[20] = system: UACC-62
[21] = system: NCI-H522
[22] = system: U-251
[23] = system: IGROV-1
[24] = system: RXF 393
[25] = system: MCF7
[26] = system: ACHN
[27] = system: SNB-75
[28] = system: NCI-H226
[29] = system: 786-0
[30] = system: HCT-116
[31] = system: NCI-H23
[32] = system: KM12
[33] = system: M14
[34] = system: LOX IMVI
[35] = system: T47D
[36] = system: TK-10
[37] = system: UO-31
[38] = system: SK-MEL-5
[39] = system: SF-539
[40] = system: HCC 2998
[41] = system: A498
[42] = system: SF-295
[43] = system: CCRF-CEM
[44] = system: OVCAR-5
[45] = system: BT-549
[46] = system: Hs-578T
[47] = system: HT-29
[48] = system: DU-145
[49] = system: HOP-62
[50] = system: MDA-MB-435
[51] = system: SNB-19
[52] = system: NCI-H460
[53] = system: SK-MEL-2
[54] = system: NCI/ADR-RES
[55] = system: MOLT-4
[56] = system: K562
[57] = system: RPMI-8226
[58] = system: HL-60

O=C(/C=C/c1ccc(OCc2ccccc2)cc1)NCc1ccc(C(=O)NCCc2ccccc2)cc1
GI50 [1]: > 100 µM (inactive) | GI50 [2]: > 100 µM (inactive) | GI50 [3]: > 100 µM (inactive) | GI50 [4]: > 100 µM (inactive) | GI50 [5]: > 100 µM (inactive) | GI50 [6]: 23.3 µM (inactive) | GI50 [7]: > 100 µM (inactive) | GI50 [8]: > 100 µM (inactive) | GI50 [9]: > 100 µM | GI50 [10]: > 100 µM (inactive) | GI50 [11]: > 100 µM (inactive) | GI50 [12]: > 100 µM (inactive) | GI50 [13]: > 100 µM (inactive) | GI50 [14]: > 100 µM (inactive) | GI50 [15]: > 100 µM (inactive) | GI50 [16]: > 100 µM (inactive) | GI50 [17]: > 100 µM (inactive) | GI50 [18]: > 100 µM (inactive) | GI50 [19]: > 100 µM (inactive) | GI50 [20]: > 100 µM (inactive) | GI50 [21]: > 100 µM (inactive) | GI50 [22]: > 100 µM (inactive) | GI50 [23]: > 100 µM (inactive) | GI50 [24]: 64.1 µM (inactive) | GI50 [25]: > 100 µM (inactive) | GI50 [26]: > 100 µM (inactive) | GI50 [27]: > 100 µM (inactive) | GI50 [28]: > 100 µM (inactive) | GI50 [29]: > 100 µM (inactive) | GI50 [30]: > 100 µM (inactive) | GI50 [31]: > 100 µM (inactive) | GI50 [32]: > 100 µM (inactive) | GI50 [33]: > 100 µM (inactive) | GI50 [34]: > 100 µM (inactive) | GI50 [35]: > 100 µM (inactive) | GI50 [36]: > 100 µM (inactive) | GI50 [37]: > 100 µM (inactive) | GI50 [38]: > 100 µM (inactive) | GI50 [39]: > 100 µM (inactive) | GI50 [40]: > 100 µM (inactive) | GI50 [41]: > 100 µM (inactive) | GI50 [42]: > 100 µM (inactive) | GI50 [43]: 11.4 µM (inactive) | GI50 [44]: > 100 µM (inactive) | GI50 [45]: > 100 µM (inactive) | GI50 [46]: > 100 µM (inactive) | GI50 [47]: > 100 µM (inactive) | GI50 [48]: > 100 µM (inactive) | GI50 [49]: 89.1 µM (inactive) | GI50 [50]: > 100 µM (inactive) | GI50 [51]: > 100 µM (inactive) | GI50 [52]: > 100 µM (inactive) | GI50 [53]: > 100 µM (inactive) | GI50 [54]: > 100 µM (inactive)

C[C@@H]1OC(=O)C[C@H]2CC(=O)N(CCc3cn(S(=O)(=O)C(F)(F)F)c4ccccc34)C[C@@H]21
GI50 [1]: > 100 µM (inactive) | GI50 [2]: > 100 µM (inactive) | GI50 [3]: > 100 µM (inactive) | GI50 [4]: > 100 µM (inactive) | GI50 [5]: > 100 µM (inactive) | GI50 [6]: > 100 µM (inactive) | GI50 [7]: > 100 µM (inactive) | GI50 [8]: > 100 µM (inactive) | GI50 [9]: > 100 µM | GI50 [10]: > 100 µM (inactive) | GI50 [11]: > 100 µM (inactive) | GI50 [12]: > 100 µM (inactive) | GI50 [13]: > 100 µM (inactive) | GI50 [15]: > 100 µM (inactive) | GI50 [16]: > 100 µM (inactive) | GI50 [55]: > 100 µM (inactive) | GI50 [17]: > 100 µM (inactive) | GI50 [56]: > 100 µM (inactive) | GI50 [18]: > 100 µM (inactive) | GI50 [19]: > 100 µM (inactive) | GI50 [57]: > 100 µM (inactive) | GI50 [20]: > 100 µM (inactive) | GI50 [21]: > 100 µM (inactive) | GI50 [22]: > 100 µM (inactive) | GI50 [23]: > 100 µM (inactive) | GI50 [24]: > 100 µM (inactive) | GI50 [25]: > 100 µM (inactive) | GI50 [26]: > 100 µM (inactive) | GI50 [27]: > 100 µM (inactive) | GI50 [29]: > 100 µM (inactive) | GI50 [30]: > 100 µM (inactive) | GI50 [31]: > 100 µM (inactive) | GI50 [32]: > 100 µM (inactive) | GI50 [33]: > 100 µM (inactive) | GI50 [35]: > 100 µM (inactive) | GI50 [36]: > 100 µM (inactive) | GI50 [37]: > 100 µM (inactive) | GI50 [38]: > 100 µM (inactive) | GI50 [40]: > 100 µM (inactive) | GI50 [41]: > 100 µM (inactive) | GI50 [42]: > 100 µM (inactive) | GI50 [43]: > 100 µM (inactive) | GI50 [44]: > 100 µM (inactive) | GI50 [45]: > 100 µM (inactive) | GI50 [46]: > 100 µM (inactive) | GI50 [47]: > 100 µM (inactive) | GI50 [48]: > 100 µM (inactive) | GI50 [49]: > 100 µM (inactive) | GI50 [50]: > 100 µM (inactive) | GI50 [51]: > 100 µM (inactive) | GI50 [52]: > 100 µM (inactive) | GI50 [53]: > 100 µM (inactive) | GI50 [54]: > 100 µM (inactive)

O=C(CSc1nc2ccc(Cl)cc2c(=O)n1-c1ccccc1)N/N=C1\C(=O)Nc2ccc(F)cc21
GI50 [1]: 2.39 µM (inactive) | GI50 [2]: 3.56 µM (inactive) | GI50 [3]: 4.81 µM (inactive) | GI50 [4]: 2.16 µM (inactive) | GI50 [5]: 2.37 µM (inactive) | GI50 [6]: 3 µM (inactive) | GI50 [7]: 1.89 µM (inactive) | GI50 [8]: 2.76 µM (inactive) | GI50 [9]: 1.96 µM | GI50 [10]: 8.34 µM (inactive) | GI50 [11]: 1.69 µM (inactive) | GI50 [12]: 2.67 µM (inactive) | GI50 [13]: 2.21 µM (inactive) | GI50 [14]: 2.08 µM (inactive) | GI50 [15]: 2.33 µM (inactive) | GI50 [16]: 2.82 µM (inactive) | GI50 [55]: 2.88 µM (inactive) | GI50 [17]: 3.57 µM (inactive) | GI50 [56]: 3.72 µM (inactive) | GI50 [18]: 3.05 µM (inactive) | GI50 [19]: 2.49 µM (inactive) | GI50 [57]: 1.77 µM (inactive) | GI50 [20]: 2.39 µM (inactive) | GI50 [21]: 1.81 µM (inactive) | GI50 [22]: 1.74 µM (inactive) | GI50 [23]: 2.17 µM (inactive) | GI50 [24]: 1.76 µM (inactive) | GI50 [25]: 2.1 µM (inactive) | GI50 [26]: 1.98 µM (inactive) | GI50 [27]: 2.24 µM (inactive) | GI50 [28]: 3.5 µM (inactive) | GI50 [29]: 2.1 µM (inactive) | GI50 [58]: 3.66 µM (inactive) | GI50 [30]: 2.02 µM (inactive) | GI50 [31]: 2.92 µM (inactive) | GI50 [32]: 3.13 µM (inactive) | GI50 [33]: 3.21 µM (inactive) | GI50 [34]: 1.78 µM (inactive) | GI50 [35]: 2.07 µM (inactive) | GI50 [36]: 4.21 µM (inactive) | GI50 [37]: 0.189 µM (active) | GI50 [38]: 3.13 µM (inactive) | GI50 [39]: 2.86 µM (inactive) | GI50 [40]: 2.69 µM (inactive) | GI50 [41]: 2.38 µM (inactive) | GI50 [42]: 4.2 µM (inactive) | GI50 [43]: 2.7 µM (inactive) | GI50 [44]: 2.9 µM (inactive) | GI50 [45]: 1.85 µM (inactive) | GI50 [46]: 4.25 µM (inactive) | GI50 [47]: 2.2 µM (inactive) | GI50 [48]: 2.16 µM (inactive) | GI50 [49]: 1.75 µM (inactive) | GI50 [50]: 2.43 µM (inactive) | GI50 [51]: 2.97 µM (inactive) | GI50 [52]: 3.7 µM (inactive) | GI50 [53]: 1.95 µM (inactive) | GI50 [54]: 2.65 µM (inactive)
